Experimental findings from patent publication US10202354B2, “Therapeutic compounds and uses thereof” (GENENTECH, INC., priority 2015, dated 2019) are described below.

The test has as its target Full length KDM2B (Homo sapiens (Human), UniProt Q8NHM5). Kind of test: KDM2B TR-FRET Assay for Determining Inhibitor IC50. The test is classed as biochemical. The conditions noted are these: TR-FRET (HTRF), biotin-H3K36me2 peptide substrate. The text has this: KDM2B TR-FRET Assay for Determining Inhibitor IC50
The KDM2B TR-FRET Assay described above represents an additional embodiment of the invention.

Sequence of Full length KDM2B (Q8NHM5 whole entry): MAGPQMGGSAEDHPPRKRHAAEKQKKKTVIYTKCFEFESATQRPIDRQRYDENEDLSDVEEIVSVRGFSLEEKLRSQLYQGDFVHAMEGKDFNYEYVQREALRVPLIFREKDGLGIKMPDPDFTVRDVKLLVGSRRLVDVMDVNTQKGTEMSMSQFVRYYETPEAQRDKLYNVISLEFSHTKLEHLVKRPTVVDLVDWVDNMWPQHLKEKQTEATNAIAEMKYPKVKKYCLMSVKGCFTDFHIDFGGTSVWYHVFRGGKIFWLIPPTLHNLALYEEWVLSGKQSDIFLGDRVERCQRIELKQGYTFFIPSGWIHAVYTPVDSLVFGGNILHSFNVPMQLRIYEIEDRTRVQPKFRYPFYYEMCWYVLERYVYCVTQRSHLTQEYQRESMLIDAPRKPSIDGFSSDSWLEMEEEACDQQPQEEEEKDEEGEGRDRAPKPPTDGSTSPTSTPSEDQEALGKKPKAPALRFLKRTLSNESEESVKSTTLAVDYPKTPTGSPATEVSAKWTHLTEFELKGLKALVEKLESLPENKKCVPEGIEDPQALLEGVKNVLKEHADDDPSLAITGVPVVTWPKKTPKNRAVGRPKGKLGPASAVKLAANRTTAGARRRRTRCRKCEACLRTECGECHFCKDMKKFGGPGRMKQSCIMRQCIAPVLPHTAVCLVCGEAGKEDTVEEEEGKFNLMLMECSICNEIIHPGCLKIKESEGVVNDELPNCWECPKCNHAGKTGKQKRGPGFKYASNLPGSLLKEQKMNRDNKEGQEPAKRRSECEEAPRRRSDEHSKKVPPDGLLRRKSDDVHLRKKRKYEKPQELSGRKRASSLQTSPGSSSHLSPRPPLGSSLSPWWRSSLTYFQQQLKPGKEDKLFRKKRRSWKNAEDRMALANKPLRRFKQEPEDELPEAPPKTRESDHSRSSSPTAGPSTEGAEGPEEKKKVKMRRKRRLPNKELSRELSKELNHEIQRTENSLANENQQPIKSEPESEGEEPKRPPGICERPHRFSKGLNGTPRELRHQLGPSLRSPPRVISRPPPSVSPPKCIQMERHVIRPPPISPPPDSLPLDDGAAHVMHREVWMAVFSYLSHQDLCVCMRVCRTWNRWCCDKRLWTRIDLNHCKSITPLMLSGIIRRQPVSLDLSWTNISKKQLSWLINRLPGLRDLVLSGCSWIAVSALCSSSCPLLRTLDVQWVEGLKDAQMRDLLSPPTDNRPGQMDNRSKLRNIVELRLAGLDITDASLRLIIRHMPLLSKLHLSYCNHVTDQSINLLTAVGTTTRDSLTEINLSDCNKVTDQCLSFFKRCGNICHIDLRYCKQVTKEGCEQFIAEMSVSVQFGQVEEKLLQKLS

Regarding `O=S(=O)(c1ccc(-c2ccc(O)cc2)cc1)N1CCN=C1N1CCN(C2CCC2)CC1` [Example 17, 4-[4-[[2-(4-cyclobutylpiperazin-1-yl)-4,5-dihydroimidazol-1-yl]sulfonyl]phenyl]phenol], the IC50 came out at 0.021 nM.
Regarding `CCN1CCN(C2=NCCN2S(=O)(=O)c2ccc3ccccc3c2)CC1` [Example 110, 1-ethyl-4-[1-(2-naphthylsulfonyl)-4,5-dihydroimidazol-2-yl]piperazine], the IC50 is 0.998 nM.
`CCN1CCN(C2=NCCN2S(=O)(=O)c2cccc(OC(F)(F)F)c2)CC1` [Example 99, 1-ethyl-4-[1-[3-(trifluoromethoxy)phenyl]sulfonyl-4,5-dihydroimidazol-2-yl]piperazine] returned an IC50 of 6.22 nM.
Molecule `O=S(=O)(c1cccc(C(F)(F)F)c1)N1CCN=C1N1CCN(C2CCC2)CC1` [Example 60, 1-cyclobutyl-4-[1-[3-(trifluoromethyl)phenyl]sulfonyl-4,5-dihydroimidazol-2-yl]-piperazine] came in with an IC50 of 0.278 nM.
In turn, `Cn1ccc(-c2ccc(S(=O)(=O)N3CCN=C3N3CCN(C4CCC4)CC3)cc2)n1` [Example 28, 1-cyclobutyl-4-[1-[4-(1-methylpyrazol-3-yl)phenyl]sulfonyl-4,5-dihydroimidazol-2-yl]piperazine] returned an IC50 of 0.049 nM.
As for `O=S(=O)(c1ccc2c(c1)CCCC2)N1CCN=C1N1CCN(C2CCC2)CC1` [Example 32, 1-cyclobutyl-4-(1-tetralin-6-ylsulfonyl-4,5-dihydroimidazol-2-yl)piperazine], the IC50 is 0.016 nM.
In turn, `COc1cccc(-c2ccc(S(=O)(=O)N3CCN=C3N3CCN(C4CCC4)CC3)cc2)c1` [Example 2, 1-cyclobutyl-4-[1-[4-(3-methoxyphenyl)phenyl]sulfonyl-4,5-dihydroimidazol-2-yl]piperazine] registered an IC50 of 0.098 nM.
`CCN1CCN(C2=NCCN2S(=O)(=O)c2ccc(Cl)c(Cl)c2)CC1` [Example 69, 1-[1-(3,4-dichlorophenyl)sulfonyl-4,5-dihydroimidazol-2-yl]-4-ethyl-piperazine] returned an IC50 of 11.5 nM.
`O=C(c1ccc(Cl)cc1)N1CCN=C1N1CCN(C2CCC2)CC1` [Example 88, (4-chlorophenyl)-[2-(4-cyclobutylpiperazin-1-yl)-4,5-dihydroimidazol-1-yl]methanone] displayed an IC50 of 2.21 nM.
As for `O=S(=O)(c1ccc(-c2cccc(Cl)c2)cc1)N1CCN=C1N1CCN(C2CCC2)CC1` [Example 22, 1-[1-[4-(3-chlorophenyl)phenyl]sulfonyl-4,5-dihydroimidazol-2-yl]-4-cyclobutyl-piperazine], 0.12 nM corresponded to half-maximal inhibition (IC50).
In the case of `Cc1cccc(S(=O)(=O)N2CCN=C2N2CCN(C3CCC3)CC2)c1` [Example 59, 1-cyclobutyl-4-[1-(m-tolylsulfonyl)-4,5-dihydroimidazol-2-yl]piperazine] it was 0.146 nM; in that of `O=C(c1cccc(Cl)c1)N1CCN=C1N1CCN(C2CCC2)CC1` [Example 86, (3-chlorophenyl)-[2-(4-cyclobutylpiperazin-1-yl)-4,5-dihydroimidazol-1-yl]methanone], 2.04 nM; in that of `CC1CC(N2CCN(C3=NCCN3S(=O)(=O)c3ccc(C(C)C)cc3)CC2)C1` (centres unmarked) [Example 39, 1-[1-(4-isopropylphenyl)sulfonyl-4,5-dihydroimidazol-2-yl]-4-(3-methylcyclobutyl)piperazine], 0.86 nM.
In turn, `CC(=O)Nc1ccc(S(=O)(=O)N2CCN=C2N2CCN(C3CCC3)CC2)cc1` [Example 70, N-[4-[[2-(4-cyclobutylpiperazin-1-yl)-4,5-dihydroimidazol-1-yl]sulfonyl]phenyl]acetamide] displayed a half-inhibitory concentration (IC50) of 0.094 nM.
`O=S(=O)(c1ccc(-c2cccc(F)c2)cc1)N1CCN=C1N1CCN(C2CCC2)CC1` [Example 26, 1-cyclobutyl-4-[1-[4-(3-fluorophenyl)phenyl]sulfonyl-4,5-dihydroimidazol-2-yl]piperazine] displayed an IC50 of 0.138 nM.
In the case of `CCN1CCN(C2=NCCN2S(=O)(=O)c2ccccc2OC)CC1` [Example 111, 1-ethyl-4-[1-(2-methoxyphenyl)sulfonyl-4,5-dihydroimidazol-2-yl]piperazine] it was 13.3 nM.
As for `Cn1nccc1-c1ccc(S(=O)(=O)N2CCN=C2N2CCN(C3CCC3)CC2)cc1` [Example 29, 1-cyclobutyl-4-[1-[4-(2-methylpyrazol-3-yl)phenyl]sulfonyl-4,5-dihydroimidazol-2-yl]piperazine], the concentration for half-maximal inhibition (IC50) was found to be 0.049 nM.
`O=S(=O)(c1ccc(-c2cccc(C(F)(F)F)c2)cc1)N1CCN=C1N1CCN(C2CCC2)CC1` [Example 11, 1-cyclobutyl-4-[1-[4-[3-(trifluoromethyl)phenyl]phenyl]sulfonyl-4,5-dihydroimidazol-2-yl]piperazine] showed a concentration for half-maximal inhibition (IC50) of 0.134 nM.
As for `CCN1CCN(C2=NCCN2S(=O)(=O)c2ccc(OC(F)F)cc2)CC1` [Example 105, 1-[1-[4-(difluoromethoxy)phenyl]sulfonyl-4,5-dihydroimidazol-2-yl]-4-ethyl-piperazine], half-maximal inhibition (IC50) was put at 3.31 nM.
`CC(C)c1ccc(S(=O)(=O)N2C[C@@H](C)N=C2N2CCN(C3CCC3)CC2)cc1` [Example 46, (R)-1-cyclobutyl-4-[1-(4-isopropylphenyl)sulfonyl-4-methyl-4,5-dihydroimidazol-2-yl]piperazine] registered an IC50 of 0.054 nM.
`N#Cc1ccc2cc(S(=O)(=O)N3CCN=C3N3CCN(C4CCC4)CC3)ccc2c1` [Example 36, 6-[[2-(4-cyclobutylpiperazin-1-yl)-4,5-dihydroimidazol-1-yl]sulfonyl]naphthalene-2-carbonitrile]: inhibition was half-maximal at 0.13 nM (IC50).
For `N#Cc1ccc(-c2ccc(S(=O)(=O)N3CCN=C3N3CCN(C4CCC4)CC3)cc2)cc1` [Example 5, 4-[4-[[2-(4-cyclobutylpiperazin-1-yl)-4,5-dihydroimidazol-1-yl]sulfonyl]phenyl]benzonitrile], the IC50 is 0.097 nM.
In the case of `CC(C)c1ccc(S(=O)(=O)N2CCN=C2N2CCN(C3CCC3)C(C)C2)cc1` (centres unmarked) [Example 37, 1-cyclobutyl-4-[1-(4-isopropylphenyl)sulfonyl-4,5-dihydroimidazol-2-yl]-2-methyl-piperazine] it was 0.689 nM; in that of `Cc1ccccc1-c1ccc(S(=O)(=O)N2CCN=C2N2CCN(C3CCC3)CC2)cc1` [Example 8, 1-cyclobutyl-4-[1-[4-(o-tolyl)phenyl]sulfonyl-4,5-dihydroimidazol-2-yl]piperazine], 0.077 nM; in that of `O=S(=O)(c1ccc2cc(Cl)ccc2c1)N1CCN=C1N1CCN(C2CCC2)CC1` [Example 74, 1-[1-[(6-chloro-2-naphthyl)sulfonyl]-4,5-dihydroimidazol-2-yl]-4-cyclobutyl-piperazine], 0.041 nM.
Regarding `O=S(=O)(c1cccc2nonc12)N1CCN=C1N1CCN(C2CCC2)CC1` [Example 64, 4-[[2-(4-cyclobutylpiperazin-1-yl)-4,5-dihydroimidazol-1-yl]sulfonyl]-2,1,3-benzoxadiazole], the midpoint of inhibition, the IC50, lay at 0.5 nM.
In the case of `Cn1c(=O)oc2cc(S(=O)(=O)N3CCN=C3N3CCN(C4CCC4)CC3)ccc21` [Example 55, 6-[[2-(4-cyclobutylpiperazin-1-yl)-4,5-dihydroimidazol-1-yl]sulfonyl]-3-methyl-1,3-benzoxazol-2-one] it was 0.36 nM; in that of `O=S(=O)(c1ccc(-c2cccs2)cc1)N1CCN=C1N1CCN(C2CCC2)CC1` [Example 19, 1-cyclobutyl-4-[1-[4-(2-thienyl)phenyl]sulfonyl-4,5-dihydroimidazol-2-yl]piperazine], 0.027 nM.
In the case of `O=S(=O)(c1ccc(Cl)c(Cl)c1)N1CCN=C1N1CCN(C2CCC2)CC1` [Example 67, 1-cyclobutyl-4-[1-(3,4-dichlorophenyl)sulfonyl-4,5-dihydromidazol-2-yl]piperazine] it was 0.136 nM; in that of `COc1ccccc1C(=O)N1CCN=C1N1CCN(C2CCC2)CC1` [Example 91, [2-(4-cyclobutylpiperazin-1-yl)-4,5-dihydroimidazol-1-yl]-(2-methoxyphenyl)methanone], 11.5 nM; in that of `Cc1cccc(-c2ccc(S(=O)(=O)N3CCN=C3N3CCN(C4CCC4)CC3)cc2)c1` [Example 9, 1-cyclobutyl-4-[1-[4-(m-tolyl)phenyl]sulfonyl-4,5-dihydroimidazol-2-yl]piperazine], 0.074 nM.
In turn, `CC(C)c1ccc(S(=O)(=O)N2CCN=C2N2CCN(C3CCC3)CC2)cc1` [Example 31, 1-cyclobutyl-4-(1-((4-isopropylphenyl)sulfonyl)-4,5-dihydro-1H-imidazol-2-yl)piperazine] gave an IC50 of 0.043 nM.
`CC1CCC(N2CCN(C3=NCCN3S(=O)(=O)c3ccc(C(C)C)cc3)CC2)C1` (centres unmarked) [Example 94, 1-[1-(4-isopropylphenyl)sulfonyl-4,5-dihydroimidazol-2-yl]-4-(3-methylcyclopentyl)piperazine] registered a 50% inhibitory concentration (IC50) of 1.42 nM.
`Cc1ccc(C(=O)N2CCN=C2N2CCN(C3CCC3)CC2)cc1` [Example 84, [2-(4-cyclobutylpiperazin-1-yl)-4,5-dihydroimidazol-1-yl]-(p-tolyl)methanone] displayed an IC50 of 2.7 nM.
Molecule `CC(C)c1ccc(S(=O)(=O)N2C[C@@H](C3CC3)N=C2N2CCN(C3CCC3)CC2)cc1` [Example 41, (R)-1-cyclobutyl-4-(4-cyclopropyl-1-((4-isopropylphenyl)sulfonyl)-4,5-dihydro-1H-imidazol-2-yl)piperazine] came in with a half-maximal inhibitory concentration (IC50) of 0.039 nM.
The molecule `CCN1CCN(C2=NCCN2S(=O)(=O)c2ccc(OC)cc2)CC1` [Example 116, 1-ethyl-4-[1-(4-methoxyphenyl)sulfonyl-4,5-dihydroimidazol-2-yl]piperazine] returned a half-inhibitory concentration (IC50) of 5.45 nM.
`CCN1CCN(C2=NCCN2S(=O)(=O)c2ccccc2Cl)CC1` [Example 114, 1-[1-(2-chlorophenyl)sulfonyl-4,5-dihydroimidazol-2-yl]-4-ethyl-piperazine] yielded a half-maximal inhibitory concentration (IC50) of 2.81 nM.
`COc1ccc(-c2ccc(S(=O)(=O)N3CCN=C3N3CCN(C4CCC4)CC3)cc2)cc1` [Example 3, 1-cyclobutyl-4-[1-[4-(4-methoxyphenyl)phenyl]sulfonyl-4,5-dihydroimidazol-2-yl]piperazine] showed an IC50 of 0.08 nM.

By IC50 is commonly meant the concentration that inhibits the measured activity by half. Higher therefore signals weaker potency.
